The values below come from patent US20080207724A1, “Use of Inhibitors of Histone Deacteylases in Combination With Compounds Acting as Nsaid for the Therapy of Human Diseases” (priority 2005, published 2008).

Assay [1] has as its system prostaglandin E2. Briefly: Prostaglandin levels in liver extracts of APCmin mice (ex vivo cyclooxygenase activity). More on the design: species or system mouse. To be noted: liver taken 3 hours after final dose, same treatment as adenoma study, FIG. 5b. The protocol:
(§1) Control animals were injected (i.p.) with PBS. […] At sacrifice entire intestinal tracts were opened longitudinally and fixed in 10% phosphate buffered formaldehyde for 24 hours followed by ethanol-fixation in 50% ethanol for three days. […] Cyclooxygenase activity was assessed ex vivo in hepatic tissue as described (Reuter et al., 2002; BMC Cancer 2:19). Briefly, mice were euthanized 3 hours following the final dose of vehicle or drugs and a sample of liver tissue (−100 mg) was obtained. The samples were then placed into microcentrifuge tubes containing 1 ml of sodium phosphate buffer (10 mM, pH 7.4) and finely minced with scissors for 15 seconds. Samples were then incubated for 20 min at […] in a shaking water bath. After the incubation period, samples were centrifuged at 9000×g for 30 seconds and the supernatants collected. Supernatants were flash frozen in liquid nitrogen and stored at […] for subsequent determination of prostaglandin E2 content. PGE2 concentrations were determined in duplicates after 1:20 dilution of supernatants using a commercially available competitive Enzyme Immunoassay (Cayman Chemical).

In assay [2] the test system is MDA-MB-231 mammary carcinoma cells. Briefly: Prostaglandin secretion, Celecoxib plus HDAC inhibitor, MDA-MB-231 cells. The assay is classed as cell-based, human. Conditions: in combination with Celecoxib, FIG. 4. The protocol:
(§2) In detail, cells were seeded at a density of 7,5×10^4 per well in 24 well plates. Supernatants were analyzed in a dilution of 1:3 in duplicates with the prostaglandin E2 EIA Kit from Cayman according to the manufacture's instructions. Bars show the mean of two values. Cell extracts were prepared by removing growth medium completely and adding of 200 μl of Laemmli Sample buffer per well. Subsequently, 60 μl were loaded on 8% acrylamide gels and subjected to discontinuous electrophoresis.

Assay [3] relates to Cox-2. Briefly: Cox-2 expression (Western blot / RT-PCR) in various cell types. The assay is classed as cell-based, human. Conditions: for Expression of Cox-2 on RNA and protein level: several systems: A-549, SK-Mel, HT-29, MDA-MB-231, THP-1, primary human lymphocytes and macrophages, FIGS. 1 and 2. The protocol:
In HT-29 colon carcinoma cells Cox-2 expression was induced by treatment with 100 ng/ml TNF-α for 4 h.
Cells were seeded at densities between 5×10^4 and 1×10^5 cells per well of 24 well plates. Lysis was done by removing growth medium and adding 200 μl of Laemmli sample buffer per well. 60 μl were loaded on 8% acrylamide gels and subjected to discontinuous electrophoresis. Proteins blotted onto PVDF membranes were probed with a goat-anti-Cox-2 antibody (St. Cruz, sc1747) or a mouse anti-pan-actin antibody (Ab-5, NeoMarkers).
as §2
On the technique in general: Immunoblotting shows a protein as a band on a membrane.

Assay [4] relates to adenomas in C57BL/6J-APCmin/+ mice. Briefly: Adenoma number in the APCmin mouse model. The assay is classed as in vivo. Conditions: four weeks, VPA sodium salt 2×400 mg/kg/day i.p., Celecoxib 1250 ppm in diet, combination same dosages, FIG. 5A. As for the experimental part: as §1
The test system of assay [5] is COX-2 RNA. Briefly: Semi quantitative RT-PCR of COX-2 RNA in LPS-induced THP-1 cells. The assay is classed as cell-based, human. To be noted: THP-1 cells differentiated with TPA; 1 mM VPA or 10 μM G2M-707 over night, then 10 μg/ml LPS 6 h; FIG. 1A. As for the experimental part:
(§3) THP-1 cells were induced to differentiate by addition of 20 ng/ml TPA to the growth medium for 3d. Adherent cells were seeded at a density of 5×10^5 cells per well of a 6-well plate, and were incubated with 1 mM VPA or 10 μM G2M-707 over night (FIG. 1A). Cox-2 expression was then induced by addition of 10 μg/ml LPS for 6 h. RNA was prepared using the RNeasy Kit from Qiagen according to the manufacturer's instructions. Reverse transcription was done with 1 μg of RNA in a volume of 20 μl. 1 μl was used for each PCR reaction with specific primers for the indicated genes.

For assay [6], the system named is collagen induced arthritis in DBA/1 mice. Briefly: Therapeutic collagen induced arthritis (CIA) model, clinical severity score. The assay is classed as in vivo. To be noted: DBA/1 mice with CIA, 15 days; VPA 2×400 mg/kg/d i.p., G2M-707 2×1 mg/mouse/d i.p.; versus control group; FIG. 6 upper panel. As for the experimental part:
To evaluate this anti-inflammatory potency of HDAC inhibitors in a therapeutic in vivo inflammation model we applied VPA and G2M-707 to mice that had developed collagen induced arthritis (CIA).
Prednisolon, a corticosteroid drug in clinical use for RA, was used as a positive control in this study.
In detail, in this therapeutic CIA model, DBA/1 female mice of age 7 weeks were immunized with 100 μg of chicken type II collagen (Chondrex) in CFA. Development of arthritis started 21 to 28 days after immunization and reached an incidence of 93% after 6 weeks. The severity was medium to high and reached a mean score of 10.3 (maximum score 15) in untreated animals. The mice were monitored daily for signs of arthritis using an established scoring system. At the first sign of arthritis, the affected mice were assigned to a treatment group. The mice were treated for 15 days with vehicle control or VPA at 2×400 mg/kg/d i.p. or G2M-707 at 2×1 mg/mouse/d i.p. or Prednisolon at 2×20 mg/kg/d (i.p.). Clinical severity of arthritis was assessed based on the appearance of each paw and subjectively graded on a scale of 0 to 4. The scores of each limb were summed, giving a maximum severity score of 16. […] After onset of disease the animals were scored 3 times a week.

In assay [7] the test system is TNF-α, IFN-γ and IL-6. Briefly: Semi quantitative RT-PCR of cytokine RNA in LPS-induced THP-1 cells. The assay is classed as cell-based, human. To be noted: THP-1 cells differentiated with TPA; 1 mM VPA or 10 μM G2M-707 over night, then 10 μg/ml LPS 6 h; FIG. 1A. The protocol: as §3
The test system of assay [8] is Cox-2. Briefly: Semi quantitative RT-PCR of Cox-2 in peripheral blood lymphocytes of VPA-treated patients. The class given is in vivo, human. Conditions: patients treated with 30 mg/kg/d or 120 mg/kg/d VPA; control gene GAPDH unchanged; FIG. 1B. As for the experimental part: Semi quantitative RT-PCR was also performed with RNA isolated form peripheral blood lymphocytes of patients treated with doses 30 mg/kg/d (Patient 1) or 120 mg/kg/d VPA (Patient 2) respectively.

The subject of assay [9] is TNF-α. Description: Acute LPS-induced inflammation model, serum TNF-α ELISA. The class given is in vivo. To be noted: 3H1 mice; i.p. 1 h before LPS (50 μg per mouse); blood 1 h after LPS; VPA 400 mg/kg/d, G2M-707 1 mg/mouse/d; FIG. 6 lower panel. The protocol: To evaluate the ability of HDAC inhibitors to inhibit soluble TNF-α secretion in vivo, an acute LPS-induced inflammation model in 3H1 mice was used. The mice were injected i.p. with substances tested 1 h before the i.p. injection of LPS. Blood samples were drawn 1 h after LPS stimulus and the TNF-α levels in the serum were determined using a TNF-α ELISA assay. As shown in FIG. 6 (lower panel), VPA and G2M-707 pretreatment led to a 60% reduction in absolute TNF-α serum levels in comparison to the control mice.
In detail, mice were treated with VPA (400 mg/kg/d, n=8), G2M-701 (1 mg/mouse/d, n=4), G2M-707 (1 mg/mouse/d, n=4) or with 200 μl PBS (control, n=8) 1 h before inflammation was induced with 50 μg LPS (Sigma) per mouse. One hour after the LPS treatment, blood was taken by cardiac puncture and serum was isolated. The serum was tested in a TNF-α sandwich ELISA module from Bender MedSystems. The assay was performed as described in the manufacturer's manual. ABTS was used as a substrate and measuring was accomplished with a 96-well plate reader at a wavelength of 405 nm. Absolute OD levels at 405 nm are given.
Background: ELISA stands for enzyme-linked immunosorbent assay.

For assay [10], the system named is THP-1 monocytes. Description: Prostaglandin secretion, Celecoxib plus HDAC inhibitor, THP-1 monocytes. The class given is cell-based, human. To be noted: in combination with Celecoxib, FIG. 4. As for the experimental part: In parallel, Cox-2 protein levels were reduced as already described.
as §2, with “electrophoresis. Proteins blotted onto PVDF membranes which were probed with a goat anti-Cox-2 antibody (St. Cruz, scl 747) or a mouse anti-pan-actin (to analyze the expression of this control protein) antibody (Ab-5, NeoMarkers).” for “electrophoresis.”

Take `CCCC(CCC)C(=O)O` [VPA, 2-propyl-pentanoic acid]: the “prostaglandin levels in liver extracts” value in assay [1] is on record as “decrease”. In addition, in assay [2], the “repression of prostaglandin secretion by Celecoxib, HDAC inhibitor added” value is “dose dependently enhance”. The Cox-2 protein levels result in assay [3] (MDA-MB-231 cells, VPA together with Celecoxib, FIG. 4) was “reduced”. Moreover, in [3], the “Expression of Cox-2 on RNA and protein level” value was “downregulated”. In addition, the number of adenomas entry in assay [4] is “significantly reduces”. Also, the “COX-2 RNA” value in assay [5] is given as “downregulation”. Moreover, the “clinical severity scores (sum score)” value in assay [6] was “efficiently reduced”. Further, the “TNF-α, IFN-γ and IL-6 RNA” value in [7] is reported as “downregulation”. Also, the “Cox-2 RNA in peripheral blood lymphocytes of patients” value in assay [8] is listed as “downregulation”. Also, the “reduction in absolute TNF-α serum levels in comparison to the control mice” value in assay [9] amounted to 60%.

For `CC(/C=C/C(=O)NO)=C\[C@@H](C)C(=O)c1ccc(N(C)C)cc1` [TSA, Trichostatin A], in assay [3], the “Expression of Cox-2 on RNA and protein level” value is “downregulated”. Besides, in assay [10], the “prostaglandin levels, HDAC inhibitor added to Celecoxib” value is “reduce the prostaglandin levels further”.
